Results from patent US6291194A, “Assay for determination of androgenic or anti-androgenic activity of a serum sample or a test compound” (priority 2000, dated 2001).

Assays:
androgen receptor (AR) = molecular target: T1, androgen receptor (AR) (Homo sapiens, UniProt P10275); assay: COS-1 bioassay, inhibition by nonsteroidal antiandrogens of testosterone-induced AR LBD / N-terminal interaction; assay type: cell-based
T1 construct: The LBD of human AR (containing amino acids 657-919); expressed in transfected cells; host or cells: COS-1 cells (ATCC CRL1650)
T1 sequence (P10275 with tags, fused parts or gaps limits assumed): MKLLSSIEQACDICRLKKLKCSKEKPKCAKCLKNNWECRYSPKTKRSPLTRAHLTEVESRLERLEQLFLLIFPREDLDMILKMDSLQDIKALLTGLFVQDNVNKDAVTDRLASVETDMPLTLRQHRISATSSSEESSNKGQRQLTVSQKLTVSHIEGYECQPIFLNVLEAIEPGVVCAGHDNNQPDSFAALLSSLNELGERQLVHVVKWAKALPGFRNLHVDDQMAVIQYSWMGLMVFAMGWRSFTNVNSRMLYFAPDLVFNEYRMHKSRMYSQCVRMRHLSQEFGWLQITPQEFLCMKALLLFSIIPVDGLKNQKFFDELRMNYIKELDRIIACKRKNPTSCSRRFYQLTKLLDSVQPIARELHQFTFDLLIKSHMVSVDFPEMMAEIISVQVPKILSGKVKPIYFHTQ

[1] = cited from earlier work

| SMILES | effect on interaction between AR termini / relative luciferase activity (in words) (androgen receptor (AR)) | relative luciferase activity as % of activity with testosterone-containing FCS without antiandrogen (androgen receptor (AR); 100 times molar amount of testosterone (10 nmol/L testosterone in FCS)) | free fraction of total testosterone in serum [1] |
| --- | --- | --- | --- |
| CC(C)(O)C(=O)Nc1ccc([N+](=O)[O-])c(C(F)(F)F)c1 [hydroxyflutamide, 4-hydroxy-α,α,α-trifluoro-2-methyl-4'-nitro-m-propionotoluidide] | suppressed relative luciferase activity | ~ 5% | – |
| C[C@]12CC[C@H]3[C@@H](CCC4=CC(=O)CC[C@@]43C)[C@@H]1CC[C@@H]2O [testosterone, Testosterone] | – | – | 2-3% |
